# From patent publication EP1067939B1, “USE OF STEROIDAL ALKALOID DERIVATIVES AS INHIBITORS OF HEDGEHOG PROTEIN SIGNALING PATHWAYS” (The Johns Hopkins University, priority 1998, dated 1999)
# Read-outs that look alike come from different tables or passages of the source.
# How the values were obtained:
# endogenous Shh signaling = experiment: Midline neural plate/notochord explant assay of endogenous Shh signaling; type: cell-based, chick; conditions: midline explants, two days of culture
# rat hepatoma cells = experiment: Cholesterol Esterification Assay (esterification of plasma membrane cholesterol); type: cell-based
# Text: Table 1. […] Table 1. Effects of synthetic and plant-derived compounds on cholesterol homeostasis. […]
# Shh = target: T1, Shh (Mus musculus, UniProt Q62226); experiment: Shh autoprocessing in stably transfected HK293 cells (immunoblot); type: cell-based; conditions: added during the 24-hour induction period; doses up to 5-fold higher than those required to completely inhibit Shh signaling
# T1 construct: expressed in transfected cells; host or cells: HK293 cells, Ecdysone-Inducible Mammalian Expression System (Invitrogen)
# T1 sequence (Q62226 25-437): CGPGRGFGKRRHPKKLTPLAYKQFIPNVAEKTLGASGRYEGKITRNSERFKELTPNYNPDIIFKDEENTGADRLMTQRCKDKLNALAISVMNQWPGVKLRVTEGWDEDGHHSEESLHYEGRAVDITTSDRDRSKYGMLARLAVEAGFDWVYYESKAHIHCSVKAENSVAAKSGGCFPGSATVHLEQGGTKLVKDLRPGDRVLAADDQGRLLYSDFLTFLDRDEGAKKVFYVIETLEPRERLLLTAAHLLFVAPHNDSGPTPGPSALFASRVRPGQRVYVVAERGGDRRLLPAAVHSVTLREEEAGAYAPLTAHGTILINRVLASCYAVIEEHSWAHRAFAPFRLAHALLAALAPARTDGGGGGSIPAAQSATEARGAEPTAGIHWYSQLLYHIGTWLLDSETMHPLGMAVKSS
# Text: To examine potential effects of these compounds on Shh processing we utilized HK293 cells cultured in lipid-depleted serum and carrying a stable integrated construct for expression of Shh under ecdysone-inducible control (47). Shh protein expression in these cells can be induced by addition of muristerone A, an ecdysone analog.
# • 1. M. Hammerschmidt, A. Brook, A. P. McMahon, Trends Genet, 13, 14-21 (1997). • 2. C. Chiang, et al., Nature, 383,407-413 (1996). • 3. Y. Tanabe, T. M. Jessell, Science 274, 1115-1123 (1996). • 4. T. P. Yamaguchi, Curr. Opin. Genet. Dev. 7, 513-518 (1997). • 5. N. Shubin, C. Tabin, S. Carroll, Nature 388, 639-648 (1997). • 6. A. E. Oro, et al., Science 276, 817-821 (1997). • 7. M. M. Cohen, K. K. Sulik, J. Craniofac. Genet. Deve. Biol. 12, 196-244 (1992). • 8. E. Belloni, et al., Nature Genet. 14, 353-356 (1996). • 9. E. Roessler, et al., Nature Genet. 14, 357-360 (1996). • 10. J. A. Porter, et al., Nature 374, 363-366 (1995). • 11. J. A. Porter, K. E. Young, P. A. Beacy, Science 274, 255-259 (1996b). • 12. J. J. Lee, et al., Science 266, 1528-1537 (1994). • 13. J. A. Porter, et al., Cell 86, 21-34 (1996a). • 14. C. Roux, Arch. Franc. Pediatr. 21, 451-464 (1964). • 15. C. Roux, C. R. Soc. Biol. 160, 1353-1357 (1966). • 16. D. B. Dehart, L. Lanoue, G. S. Tinit, K. K. Sulik, Am J. Med. Genet. 68, 328-337 (1997). • 17. M. Kraml, J. F. Bagli, D. Dvornik, Biochem. and Biophysical Res. Com. 15, 455-457 (1964). • 18. J. Avigan, D. Steinberg, H. E. Vroman, M. J. Thompson, E. Mosettig, J. Biol. Chem 235, 3123-3126 (1960). • 19. R. B. Clayton, A. N. Nelson, I. D. Frantz Jr., J. Lipid Res. 4, 166-178 (1963). • 20. J. Aufenanger, J. Pill, K. Stegmeier, F. H. Schmidt, Horm. Metabol. Res. 17, 612-613 (1986). • 21. […] G. Popjak, A. Meenean, E. J. Parish, W. D. Nes, J. Biol. Chem 264,6230-6238 (1989). • 23. H. Yoshikawa, Brain Deve. 13, 115-120 (1991). • 24. R. I. Kelley, et al., Am. J. Of Med. Gen. 66, 478-484 (1996). • 25. G. S. Tint, et al., New England Journal of Medicine 330, 107-113 (1994). • 26. T.E. Willnow, et al., Proc. Natl. Acad. Sci USA 93, 8460-8464 (1996). • 27. S. Stefansson, D. A. Chappell, K. M. Argraves, D. K. Strickland, W. S. Argraves, J. Biol. Chem. 270, 19417-19421 (1995). • 28. W. Binns, L. F. James, J. L. Shupe, G. Everett, Am. J. Vet. Res. 24, 1164-1174 (1963). • 29. R. F. Keeler, W. Binns, Teratology 1, 5-10 (1968). • 30. P. A. Beachy, et al., CSH Symp. Quant. Biol. 62, in press (1997). • 31. E. D. Carstea, et al., Science 277, 228-231 (1997). • 32. S. K. Loftus, et al., Science 277, 232-235 […]. • 33. L. V. Goodrich, L. Milenkovic, K. M. Higgins, M. P. Scott, Science 277, 1109-1113 (1997). • 34. H. Kumagai, K. T. Chun, R. D. Simoni, J. Biol. Chem. 270, 19107-19113 (1995). • 35. G. Gil, J. R. Faust, D. J. Chin, J. L. Goldstien, M. S. Brown, Cell 41, 249-258 (1985). • 36. X. Hua, A. Nohturfft, J. L. Goldstein, M. S. Brown, Cell 87, 415-426 (1996). • 37. M. S. Brown, J. L. Goldstein, Cell 89, 331-340 (1997). • 38. M. M. Bryden, C. Perry, R. F. Keeler, Teratology 8, 18-28 (1973). • 39. M. L. Omnell, F. R. P. Sim, R. F. Keeler, L. C. Harne, K. W. Brown, Teratology 42, 105-119 (1990). • 40. Fertile chick eggs (white leghorn) were placed in a humidified incubator at 37.5° C in a rotating tray for 14 hours. […] The window was taped and the eggs incubated for an additional 4 days. The embryos were dissected in phosphate buffered saline (PBS, pH 7.2).
# Shh-N = experiment: Intermediate neural plate explant response to exogenous Shh-N protein; type: cell-based, chick; conditions: for concentration that inhibits the repression of Pax7 expression by 2 nM Shh-N: 20 hours; for doses at which HNF3β and Isl-1 induction are completely blocked / intermediate levels at which induction of HNF3β is blocked while induction of Isl-1 is maintained or expanded: 25 nM Shh-N
# [1] = test system: primary human lymphoblasts; experiment: Cholesterol Biosynthesis Assay (sterol profiles of cultured cells); type: cell-based; conditions: five days
# [2] = read-out: Percent Inhibition (incorporation of label into cholesteryl ester*) ^3H-Cholesterol
# [3] = read-out: Percent Inhibition (incorporation of label into cholesteryl ester*) ^14C-Oleic Acid
smiles,measurement,setting,value
"CCN(CC)CCOc1ccc(C(O)(Cc2ccc(Cl)cc2)c2ccc(C)cc2)cc1 (stereo not drawn) [Triparanol, triparanol]",Higher doses that fully inhibit HNF3β and Isl-1 induction,endogenous Shh signaling,1.0 µM
same,Intermediate doses that block induction of HNF3β while permitting induction of Isl-1,endogenous Shh signaling,0.25 µM
same,inhibition at 2.5 µM,rat hepatoma cells; [2],49%
same,inhibition at 2.5 µM,rat hepatoma cells; [3],54%
same,inhibition at 5 µM,rat hepatoma cells; [2],57%
same,inhibition at 5 µM,rat hepatoma cells; [3],65%
same,inhibition at 10 µM,rat hepatoma cells; [2],79%
same,inhibition at 10 µM,rat hepatoma cells; [3],81%
same,Shh-Np production and accumulation of unprocessed precursor,Shh,did not diminish Shh-Np production nor induce accumulation of unprocessed precursor
same,concentration that inhibits the repression of Pax7 expression by 2 nM Shh-N,Shh-N,0.25 µM
same,doses at which HNF3β and Isl-1 induction are completely blocked,Shh-N,0.5 µM
same,intermediate levels at which induction of HNF3β is blocked while induction of Isl-1 is maintained or expanded,Shh-N,0.25 µM
same,Percent Sterols: 2. C28 Sterols,[1]; 0.25 µM,4.4%
same,Percent Sterols: 3. C29 Sterols,[1]; 0.25 µM,7.8%
same,Percent Sterols: Cholesterol,[1]; 0.25 µM,56%
same,Percent Sterols: a. Desmosterol,[1]; 0.25 µM,9.1%
same,Percent Sterols: b. 7 Dehydrodesmosterol,[1]; 0.25 µM,6.0%
same,"Percent Sterols: c. Cholesta-7,24-dien-3ß-ol",[1]; 0.25 µM,3.1%
same,Percent Sterols: d. Zymosterol,[1]; 0.25 µM,9.3%
same,Percent Sterols: e. Cholesta-8(14)-en-3ß-ol,[1]; 0.25 µM,9.1%
same,Total Sterols (µg/mg protein),[1]; 0.25 µM,4.1 µg/mg protein
same,Percent Sterols: 2. C28 Sterols,[1]; 0.5 µM,2.6%
same,Percent Sterols: 3. C29 Sterols,[1]; 0.5 µM,8.1%
same,Percent Sterols: Cholesterol,[1]; 0.5 µM,45%
same,Percent Sterols: a. Desmosterol,[1]; 0.5 µM,8.7%
same,Percent Sterols: b. 7 Dehydrodesmosterol,[1]; 0.5 µM,4.1%
same,"Percent Sterols: c. Cholesta-7,24-dien-3ß-ol",[1]; 0.5 µM,2.4%
same,Percent Sterols: d. Zymosterol,[1]; 0.5 µM,27%
same,Percent Sterols: e. Cholesta-8(14)-en-3ß-ol,[1]; 0.5 µM,8.7%
same,Total Sterols (µg/mg protein),[1]; 0.5 µM,5.1 µg/mg protein
same,Percent Sterols: 2. C28 Sterols,[1]; 1.0 µM,1.5%
same,Percent Sterols: 3. C29 Sterols,[1]; 1.0 µM,5.5%
same,Percent Sterols: Cholesterol,[1]; 1.0 µM,51%
same,Percent Sterols: a. Desmosterol,[1]; 1.0 µM,6.7%
same,Percent Sterols: b. 7 Dehydrodesmosterol,[1]; 1.0 µM,2.9%
same,"Percent Sterols: c. Cholesta-7,24-dien-3ß-ol",[1]; 1.0 µM,2.6%
same,Percent Sterols: d. Zymosterol,[1]; 1.0 µM,23%
same,Percent Sterols: e. Cholesta-8(14)-en-3ß-ol,[1]; 1.0 µM,7.3%
same,Total Sterols (µg/mg protein),[1]; 1.0 µM,3.1 µg/mg protein
"Clc1ccccc1CNC[C@H]1CC[C@H](CNCc2ccccc2Cl)CC1 [AY9944, AY 9944]",Higher doses that fully inhibit HNF3β and Isl-1 induction,endogenous Shh signaling,4.0 µM
same,Intermediate doses that block induction of HNF3β while permitting induction of Isl-1,endogenous Shh signaling,0.5 µM
same,inhibition at 2.5 µM,rat hepatoma cells; [2],39%
same,inhibition at 2.5 µM,rat hepatoma cells; [3],20%
same,inhibition at 5 µM,rat hepatoma cells; [2],56%
same,inhibition at 5 µM,rat hepatoma cells; [3],35%
same,inhibition at 10 µM,rat hepatoma cells; [2],68%
same,inhibition at 10 µM,rat hepatoma cells; [3],51%
same,Shh-Np production and accumulation of unprocessed precursor,Shh,did not diminish Shh-Np production nor induce accumulation of unprocessed precursor
same,concentration that inhibits the repression of Pax7 expression by 2 nM Shh-N,Shh-N,0.5 µM
same,doses at which HNF3β and Isl-1 induction are completely blocked,Shh-N,2.0 µM
same,intermediate levels at which induction of HNF3β is blocked while induction of Isl-1 is maintained or expanded,Shh-N,1.0 µM
same,Percent Sterols: Cholesterol,[1]; 0.25 µM,30%
same,Percent Sterols: b. 7 Dehydrodesmosterol,[1]; 0.25 µM,3.5%
same,"Percent Sterols: c. Cholesta-7,24-dien-3ß-ol",[1]; 0.25 µM,1.8%
same,Percent Sterols: e. Cholesta-8(14)-en-3ß-ol,[1]; 0.25 µM,9.7%
same,Percent Sterols: f. 7 Dehydrocholesterol,[1]; 0.25 µM,50%
same,Percent Sterols: g. Lathosterol,[1]; 0.25 µM,6.2%
same,Total Sterols (µg/mg protein),[1]; 0.25 µM,7.6 µg/mg protein
same,Percent Sterols: 2. C28 Sterols,[1]; 0.5 µM,1.1%
same,Percent Sterols: 3. C29 Sterols,[1]; 0.5 µM,3.3%
same,Percent Sterols: Cholesterol,[1]; 0.5 µM,33%
same,Percent Sterols: b. 7 Dehydrodesmosterol,[1]; 0.5 µM,3.0%
same,"Percent Sterols: c. Cholesta-7,24-dien-3ß-ol",[1]; 0.5 µM,1.9%
same,Percent Sterols: e. Cholesta-8(14)-en-3ß-ol,[1]; 0.5 µM,14%
same,Percent Sterols: f. 7 Dehydrocholesterol,[1]; 0.5 µM,36%
same,Percent Sterols: g. Lathosterol,[1]; 0.5 µM,7.3%
same,Total Sterols (µg/mg protein),[1]; 0.5 µM,8.3 µg/mg protein
same,Percent Sterols: 2. C28 Sterols,[1]; 1.0 µM,2.6%
same,Percent Sterols: 3. C29 Sterols,[1]; 1.0 µM,4.6%
same,Percent Sterols: Cholesterol,[1]; 1.0 µM,34%
same,Percent Sterols: b. 7 Dehydrodesmosterol,[1]; 1.0 µM,1.9%
same,"Percent Sterols: c. Cholesta-7,24-dien-3ß-ol",[1]; 1.0 µM,1.6%
same,Percent Sterols: e. Cholesta-8(14)-en-3ß-ol,[1]; 1.0 µM,20%
same,Percent Sterols: f. 7 Dehydrocholesterol,[1]; 1.0 µM,16%
same,Percent Sterols: g. Lathosterol,[1]; 1.0 µM,7.9%
same,Percent Sterols: h. C27 Sterol 1 (mw 384),[1]; 1.0 µM,5.3%
same,Percent Sterols: i. C27 Sterol 2 (mw 382),[1]; 1.0 µM,6.0%
same,Total Sterols (µg/mg protein),[1]; 1.0 µM,8.3 µg/mg protein
